In ChEMBL document CHEMBL5465560, “Selectivity Literature for EUbOPEN Chemogenomic Library” (2024):
One block for each compound: values may come before it.

Assays:
[1] = target: Fibroblast growth factor receptor 1 (Homo sapiens, UniProt P11362); test: Selectivity interaction (SelectScreen profiling (Invitrogen)) EUB0000607a FGFR1; conditions: at 2 µM
[2] = target: T1, Ephrin type-A receptor 1 (Homo sapiens) (UniProt P21709); test: Selectivity interaction (ActivX KiNativ screen (ex vivo kinase selectivity in human PBMCs)) EUB0001619a EPHA1; assay type: cell-based; conditions: PBMC, at 1 µM
T1 sequence (whole entry): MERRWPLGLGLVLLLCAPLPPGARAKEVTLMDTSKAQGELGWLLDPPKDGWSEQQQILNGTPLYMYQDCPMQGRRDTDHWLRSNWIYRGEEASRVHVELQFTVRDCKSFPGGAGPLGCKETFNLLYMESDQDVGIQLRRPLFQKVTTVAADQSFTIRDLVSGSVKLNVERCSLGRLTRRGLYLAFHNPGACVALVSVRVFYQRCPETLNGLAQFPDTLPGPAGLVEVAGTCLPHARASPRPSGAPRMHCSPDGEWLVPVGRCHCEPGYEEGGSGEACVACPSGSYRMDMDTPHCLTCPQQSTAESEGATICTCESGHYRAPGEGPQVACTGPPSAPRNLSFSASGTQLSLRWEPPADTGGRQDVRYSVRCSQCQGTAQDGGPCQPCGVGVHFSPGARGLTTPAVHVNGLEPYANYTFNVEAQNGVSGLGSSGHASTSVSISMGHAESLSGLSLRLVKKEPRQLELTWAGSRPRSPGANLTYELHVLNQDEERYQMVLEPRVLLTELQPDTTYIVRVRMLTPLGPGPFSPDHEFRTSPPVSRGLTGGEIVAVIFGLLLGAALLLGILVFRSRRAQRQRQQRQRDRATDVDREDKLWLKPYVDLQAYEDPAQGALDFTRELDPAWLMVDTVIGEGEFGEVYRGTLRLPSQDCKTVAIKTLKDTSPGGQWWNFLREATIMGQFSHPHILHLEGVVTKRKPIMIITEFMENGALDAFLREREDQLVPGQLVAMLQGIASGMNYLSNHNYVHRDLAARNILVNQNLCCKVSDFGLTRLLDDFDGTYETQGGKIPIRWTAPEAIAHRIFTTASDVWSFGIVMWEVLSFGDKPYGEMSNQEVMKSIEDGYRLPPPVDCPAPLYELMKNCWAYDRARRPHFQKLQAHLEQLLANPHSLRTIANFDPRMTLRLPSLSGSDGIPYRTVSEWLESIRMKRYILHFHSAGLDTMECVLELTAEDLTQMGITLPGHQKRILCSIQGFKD

[3] = target: T2, Protein arginine N-methyltransferase 9 (Homo sapiens) (UniProt Q6P2P2); conditions: at 10 µM
T2 sequence (whole entry): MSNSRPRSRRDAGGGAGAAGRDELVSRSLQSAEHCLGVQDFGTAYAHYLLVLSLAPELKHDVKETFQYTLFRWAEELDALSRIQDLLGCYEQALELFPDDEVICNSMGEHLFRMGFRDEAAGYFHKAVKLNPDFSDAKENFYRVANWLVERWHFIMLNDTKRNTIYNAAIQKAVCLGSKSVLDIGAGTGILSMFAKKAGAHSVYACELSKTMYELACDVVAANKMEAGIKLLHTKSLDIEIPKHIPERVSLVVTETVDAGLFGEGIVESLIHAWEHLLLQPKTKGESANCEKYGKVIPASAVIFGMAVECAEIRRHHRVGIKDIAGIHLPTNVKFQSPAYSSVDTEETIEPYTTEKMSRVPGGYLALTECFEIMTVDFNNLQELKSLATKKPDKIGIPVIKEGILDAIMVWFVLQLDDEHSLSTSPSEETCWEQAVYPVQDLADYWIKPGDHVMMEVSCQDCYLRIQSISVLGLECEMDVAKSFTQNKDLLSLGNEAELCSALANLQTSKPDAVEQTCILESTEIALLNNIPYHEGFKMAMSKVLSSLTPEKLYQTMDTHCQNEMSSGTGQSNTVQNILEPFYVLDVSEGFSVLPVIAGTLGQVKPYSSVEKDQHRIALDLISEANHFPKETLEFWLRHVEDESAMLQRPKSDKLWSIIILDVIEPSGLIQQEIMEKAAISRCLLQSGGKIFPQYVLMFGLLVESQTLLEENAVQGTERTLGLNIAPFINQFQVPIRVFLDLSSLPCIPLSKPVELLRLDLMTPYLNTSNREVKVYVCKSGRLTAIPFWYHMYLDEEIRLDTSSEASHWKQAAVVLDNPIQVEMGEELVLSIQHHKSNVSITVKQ

[4] = target: T3, Mitogen-activated protein kinase 12 (Homo sapiens) (UniProt P53778); test: Selectivity interaction (ProQinase) EUB0000171b MAPK12
T3 sequence (whole entry): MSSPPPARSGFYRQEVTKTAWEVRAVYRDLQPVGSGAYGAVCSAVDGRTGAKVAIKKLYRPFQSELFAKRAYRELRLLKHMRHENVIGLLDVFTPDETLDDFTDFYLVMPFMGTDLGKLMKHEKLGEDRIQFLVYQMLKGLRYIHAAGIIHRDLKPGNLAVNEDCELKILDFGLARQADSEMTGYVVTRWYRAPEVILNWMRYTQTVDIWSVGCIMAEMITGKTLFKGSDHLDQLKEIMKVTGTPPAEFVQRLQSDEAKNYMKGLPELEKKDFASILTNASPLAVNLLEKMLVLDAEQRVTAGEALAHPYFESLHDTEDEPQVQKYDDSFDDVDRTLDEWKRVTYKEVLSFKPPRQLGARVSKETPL

Fibroblast growth factor receptor 1, sequence (P11362 22-822 limits assumed): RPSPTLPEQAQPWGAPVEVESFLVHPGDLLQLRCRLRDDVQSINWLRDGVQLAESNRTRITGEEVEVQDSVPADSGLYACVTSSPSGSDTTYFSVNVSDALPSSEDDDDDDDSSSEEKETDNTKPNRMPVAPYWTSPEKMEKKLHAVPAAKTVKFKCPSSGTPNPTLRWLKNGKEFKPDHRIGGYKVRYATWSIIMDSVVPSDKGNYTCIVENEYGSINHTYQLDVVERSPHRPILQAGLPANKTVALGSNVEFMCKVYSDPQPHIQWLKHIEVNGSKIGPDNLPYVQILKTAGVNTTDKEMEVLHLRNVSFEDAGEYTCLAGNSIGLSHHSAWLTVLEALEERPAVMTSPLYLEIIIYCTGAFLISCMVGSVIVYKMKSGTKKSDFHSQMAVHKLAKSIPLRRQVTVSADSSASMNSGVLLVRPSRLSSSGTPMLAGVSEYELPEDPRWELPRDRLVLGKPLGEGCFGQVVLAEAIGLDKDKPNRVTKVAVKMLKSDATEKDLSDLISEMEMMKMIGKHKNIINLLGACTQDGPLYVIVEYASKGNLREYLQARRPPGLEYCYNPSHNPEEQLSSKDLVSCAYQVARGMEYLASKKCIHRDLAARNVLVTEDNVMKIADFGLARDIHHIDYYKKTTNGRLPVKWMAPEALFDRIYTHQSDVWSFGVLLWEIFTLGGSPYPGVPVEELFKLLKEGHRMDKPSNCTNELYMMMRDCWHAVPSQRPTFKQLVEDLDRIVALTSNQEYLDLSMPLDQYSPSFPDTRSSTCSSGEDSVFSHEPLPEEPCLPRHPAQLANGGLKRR

Structure (SMILES): CNC(=O)Nc1ccc(-c2nc(N3CC4CCC(C3)O4)c3cnn(C4CCC5(CC4)OCCO5)c3n2)cc1
% of inhibition [1]: 4%

Structure (SMILES): N#Cc1cccc(-c2c[nH]c3ncnc(N4CCOCC4)c23)c1
% of inhibition [2]: -3%

% activity [3]: > 90%
Structure (SMILES): CNCCN1CCC(c2cc(CN(C)C(=O)c3cccc(Oc4ccccc4)c3)ccn2)CC1

% of control ([4]; at 1 µM): 94% | % of control ([4]; at 5 µM): 87%
Structure (SMILES): C=CC(=O)Nc1cccc(C(=O)Nc2ccc(Nc3cc(-c4[nH]c(SC)nc4C)ccn3)cc2)c1
